Data reported in US20110053900A1, “PROGESTERONE ANTAGONISTS SUCH AS CDB-4124 IN THE TREATMENT OF BREAST CANCER” (Repros Therapeutics inc, priority 2008, published 2011).

Assays:
[1] = tested on: rabbit progesterone receptor (rbPR) and glucocorticoid receptor (rbGR); assay: Receptor-binding assays, ratio of relative binding affinities rbPR/rbGR; conditions: RBA = EC50 of standard/EC50 of test compound x 100
Method: Certain antiprogestins were tested in receptor-binding assays for their ability to bind rabbit progesterone receptor (rbPR) and glucocorticoid receptor (rbGR). Briefly, cytosol containing PR or GR were prepared in TEGMD buffer (10 mM Tris, pH 7.2, 1.5 mM EDTA, 0.2 mM sodium molybdate, 10% glycerol, 1 mM DTT) from uterus or thymus, respectively, of estradiol-primed immature rabbits. For PR binding, the cytosol was incubated with 6 nM 1,2-[^3H]progesterone (50.0 Ci/mmole) and competitors were added at concentrations from 2 to 100 nM. For binding to GR, the cytosol was incubated with 6 nM 6,7-[^3H]-dexamethasone (40 Ci/mmol) and test compounds were added at concentrations from 20 to 100 nM. After overnight incubation at 4° C., bound and unbound [^3H] steroids were separated by addition of dextran-coated charcoal and centrifugation at 2100×g for 15 min at 4
C. Supernatants containing the [3H]-steroid receptor complexes were decanted into vials containing 4 ml Optifluor (Packard Instrument Co.), vortexed, equilibrated in a liquid scintillation counter for 30 minutes and then counted for 2 minutes. The ECso (Effective Concentration) for each standard curve and each of the compound curves was determined by entering the counting data into a four parameter sigmoidal computer program (RiaSmart® Immunoassay Data Reduction Program, Packard Instrument Co., Meriden, Conn.). Relative binding affinity (RBA) for each compound was calculated using the following equation: EC50 of standard/EC50 of test compound×100. The standards for the PR and GR assays were unlabeled progesterone and dexamethasone, respectively. The results of these experiments are summarized in Table 1, as a ratio of the relative binding affinities of each compound for the rbPR and rbGR receptors (rbPR/rbGR).

[2] = tested on: rabbit uterus; assay: Anti-McGinty and anti-Clauberg assays; format: in vivo; conditions: average of anti-McGinty and anti-Clauberg results relative to CDB-2914 = 1.00
Description: Also given in the Table are the relative biological activities of the same compounds in the rabbit uterus by the anti-McGinty and anti-Clauberg assays. Compound CDB-2914 (listed at the end of the Table) was used as the control or reference compound (rabbit Biological Activity=1.00) for these experiments because results of experiments using CDB-2914 have been published before (Hild-Petito et al., 1996; Passaro et al., 1997; Reel et al., 1998; Lamer et al., 2000). For the anti-McGinty test, immature female rabbits received a subcutaneous injection of 5 μg estradiol in 10% ethanol/sesame oil daily for 6 consecutive days. On day 7, animals underwent sterile abdominal surgery to ligate a 3-4 cm segment of both uterine horns. The test compound in appropriate solvent was injected intraluminally into the ligated segment of one uterine horn and vehicle alone into the other. A stimulating dose of progesterone (267 μg/day) was administered subcutaneously to each rabbit daily for the next three days to induce endometrial proliferation. All animals were sacrificed at day 10 for removal of the uterus where a segment central to the ligatures was removed and fixed in 10% neutral buffered formalin and submitted for histological processing. Five micron sections stained with hematoxylin and cosin were evaluated microscopically for the degree of endometrial glandular proliferation. The percent inhibition of endometrial proliferation for each rabbit was calculated and the mean of the group of five animals recorded. For the Anti-Clauberg test, immature female rabbits received a subcutaneous injection of 5 μg estradiol in 10% ethanol/sesame oil daily for 6 consecutive days. On day 7, animals received progesterone by subcutaneous injection (160 μg/day) and the experimental compound in appropriate vehicle orally or subcutaneously for five consecutive days. One group of rabbits received progesterone only. Twenty-four hours after the last dose, all animals were sacrificed for removal of the uterus which was cleaned of all fat and connective tissue, weighed to the nearest 0.2 mg and placed in 10% neutral buffered formalin for subsequent histological processing. Five micron sections stained with hematoxylin and eosin were evaluated microscopically for the degree of endometrial glandular proliferation. The percent inhibition of endometrial proliferation at each dose level of the test compound was derived by comparison with progesterone-stimulated animals alone. The data presented in Table 1 (rabbit Biol. Act.) reflects the average of the results obtained for each compound by the anti-McGinty and anti-Clauberg assays relative to CDB-2914.

Row | Compound | rbPR/rbGR (ratio of the relative binding affinities for rbPR and rbGR) [1] | rabbit Biol. Act. [2]
1 | CC(=O)O[C@]1(C(=O)CBr)CCC2C3CCC4=CC(=O)CCC4=C3C(c3ccc(N(C)C)cc3)C[C@@]21C (stereo partly drawn) [CDB-4031, 21-bromine-17α-acetoxy-11β-(4 N,N-dimethylaminophenyl)-19-norpregna-4,9-diene-3,20-dione] | 0.69 | 
2 | CSCC(=O)[C@@]1(OC(C)=O)CCC2C3CCC4=CC(=O)CCC4=C3C(c3ccc(N(C)C)cc3)C[C@@]21C (stereo partly drawn) [CDB-4223, 21-methylthio-17α-acetoxy-11β-(4 N,N-dimethylaminophenyl)-19-norpregna-4,9-diene-3,20-dione] | 1.17 | 
3 | CCOCC(=O)[C@@]1(OC(C)=O)CCC2C3CCC4=CC(=NO)CCC4=C3C(c3ccc(N(C)C)cc3)C[C@@]21C (stereo partly shown) [CDB-4226] | 1.51 | 0.54
4 | CC(=O)O[C@]1(C(=O)C[S+](C)[O-])CCC2C3CCC4=CC(=O)CCC4=C3C(c3ccc(N(C)C)cc3)C[C@@]21C (stereo partly drawn) [CDB-4101, 21-methoxythio-17α-acetoxy-11β-(4 N,N-dimethylaminophenyl)-19-norpregna-4,9-diene-3,20-dione] | 0.61 | 
5 | COCC(=O)[C@@]1(OC(C)=O)CCC2C3CCC4=C(C(=O)c5ccccc5)C(=O)CCC4=C3C(c3ccc(N(C)C)cc3)C[C@@]21C (stereo partly drawn) [CDB-4239, 4-benzoin-21-methoxy-17α-acetoxy-11β-(4 N,N-dimethylaminophenyl)-19-norpregna-4,9-diene-3,20-dione] | 14.80 | 
6 | CCOCC(=O)[C@@]1(OC(C)=O)CCC2C3CCC4=CC(=O)CCC4=C3C(c3ccc(N(C)C)cc3)C[C@@]21C (stereo partly drawn) [CDB-4167, 21-ethyloxy-17α-acetoxy-11β-(4 N,N-dimethylaminophenyl)-19-norpregna-4,9-diene-3,20-dione] | 1.69 | 
7 | CC(=O)O[C@]1(C(=O)CSC#N)CCC2C3CCC4=CC(=O)CCC4=C3C(c3ccc(N(C)C)cc3)C[C@@]21C (stereo partly drawn) [CDB-4352, 21-cyanothio-17α-acetoxy-11β-(4 N,N-dimethylaminophenyl)-19 norpregna-4,9-diene-3,20-dione] | 4.21 | 
8 | CCC(=O)[C@@]1(OC(C)=O)CCC2C3CCC4=CC(=O)CCC4=C3C(c3ccc(N(C)C)cc3)C[C@@]21C (stereo partly drawn) [CDB-4030, 21-methyl-17α-acetoxy-11β-(4 N,N-dimethylaminophenyl)-19-norpregna-4,9-diene-3,20-dione] | 0.96 | 
9 | 4-benzoin-21-acetylthio-17α-acetoxy-11β-(4 N,N-dimethylaminophenyl)-19-norpregna-4,9-diene-3,20-dione [CDB-4119] | 2.60 | 0.10
10 | COCC(=O)C1(OC(C)=O)CCC2C3CCC4=CC(=NO)CCC4=C3C(c3ccc(N(C)C)cc3)C[C@@]21C (stereo partly drawn) [CDB-4205, 3-hydroxyamino-21-methoxy-17α-acetoxy-11β-(4 N,N-dimethylaminophenyl)-19-norpregna-4,9-diene-3,20-dione] | 1.99 | 1.00
11 | CC(=O)OCC(=O)[C@@]1(OC(C)=O)CCC2C3CCC4=CC(=NO)CCC4=C3C(c3ccc(N(C)C)cc3)C[C@@]21C (stereo partly drawn) [CDB-4206, 3-hydroxyamino-21-acetoxy-17α-acetoxy-11β-(4 N,N-dimethylaminophenyl)-19-norpregna-4,9-diene-3,20-dione] | 1.44 | 0.68
12 | 21-BMD-17α-acetoxy-11β-(4 N,N-dimethylaminophenyl)-19-norpregna-4,9-diene-3,20-dione [CDB-4111] | 1.30 | 0.36
13 | C=COCC(=O)[C@@]1(OC(C)=O)CCC2C3CCC4=CC(=O)CCC4=C3C(c3ccc(N(C)C)cc3)C[C@@]21C (stereo partly drawn) [CDB-4361, 21-vinyl ether-17α-acetoxy-11β-(4 N,N-dimethylaminophenyl)-19-norpregna-4,9-diene-3,20-dione] | 7.20 | 
14 | CC(=O)O[C@]1(C2COC(C)(C)O2)CCC2C3CCC4=CC(=O)CCC4=C3C(c3ccc(N(C)C)cc3)C[C@@]21C (stereo partly drawn) [CDB-4110, 21-acetonide-17α-acetoxy-11β-(4 N,N-dimethylaminophenyl)-19-norpregna-4,9-diene-3,20-dione] | 0.70 | 
15 | CCC(=O)OCC(=O)[C@@]1(OC(C)=O)CCC2C3CCC4=CC(=O)CCC4=C3C(c3ccc(N(C)C)cc3)C[C@@]21C (stereo partly drawn) [CDB-4247, 21-propionyloxy-17α-acetoxy-11β-(4 N,N-dimethylaminophenyl)-19-norpregna-4,9-diene-3,20-dione] | 2.06 | 
16 | CC(=O)O[C@]1(C(=O)COC(=O)CN)CCC2C3CCC4=CC(=O)CCC4=C3C(c3ccc(N(C)C)cc3)C[C@@]21C (stereo partly drawn) [CDB-4306, 21-glycinate-17α-acetoxy-11β-(4 N,N-dimethylaminophenyl)-19-norpregna-4,9-diene-3,20-dione] | 5.90 | 0.95
17 | 21-methoxyacetyl-17α-acetoxy-11β-(4 N,N-dimethylaminophenyl)-19-norpregna-4,9-diene-3,20-dione [CDB-4362] | 4.74 | 1.25
18 | CC(=O)O[C@]1(C(=O)CO)CCC2C3CCC4=CC(=O)CCC4=C3C(c3ccc(N(C)C)cc3)C[C@@]21C (stereo partly drawn) [CDB-4152, 21-hydroxy-17α-acetoxy-11β-(4 N,N-dimethylaminophenyl)-19-norpregna-4,9-diene-3,20-dione] | 0.82 | 
19 | CC(=O)O[C@]1(C(=O)CF)CCC2C3CCC4=CC(=O)CCC4=C3C(c3ccc(N(C)C)cc3)C[C@@]21C (stereo partly drawn) [CDB-4058, 21-flourine-17α-acetoxy-11β-(4 N,N-dimethylaminophenyl)-19-norpregna-4,9-diene-3,20-dione] | 1.08 | 
20 | 21-(Cyp*-hydroxy)-17α-acetoxy-11β-(4 N,N-dimethylaminophenyl)-19-norpregna-4,9-diene-3,20-dione [CDB-4125] | 1.19 | 1.55
